Where “and” joins values, the source holds several entries; their conditions need not be identical. Equal values may be shown once. After the bases stand the sugars from the 5' end (letter, count) and the backbone: PS all phosphorothioate, else s phosphorothioate and o phosphodiester by linkage. Methylation of C is not given here. k = constrained ethyl (cEt); d = 2'-deoxy (DNA)
These sequences were tested against MALAT1. Details: ASO, A431, 0.005 µM.

Row | Sequence | target mRNA inhibition
1 | GGTCTAGGATCCTCTA (sugars k3 d10 k3, PS) | 23%
2 | TGTTAACAGCTGCCTG (sugars k3 d10 k3, PS) | 39%
3 | GTTATGACTCAGAAGA (sugars k3 d10 k3, PS) | 26%
4 | CTATTCTTTTCTTCGC (sugars k3 d10 k3, PS) | 37%
5 | CTGATTTTAAGGTTGC (sugars k3 d10 k3, PS) | 80% and 86%
6 | CCCATTATATTAGAAA (sugars k3 d10 k3, PS) | 10%
7 | AATCTAAAAGCATTGC (sugars k3 d10 k3, PS) | 30%
8 | CAGCGGTACACTCCTT (sugars k3 d10 k3, PS) | 36%
9 | ACAGCTTATGGAACTT (sugars k3 d10 k3, PS) | 27%
10 | ACAAAACGAATTCAGG (sugars k3 d10 k3, PS) | 31%
11 | ATGAGTATAAGCCTGA (sugars k3 d10 k3, PS) | 55%
12 | TCCGTAACTTTAAATT (sugars k3 d10 k3, PS) | 36%
13 | TGCTAGCTTGGCCAAG (sugars k3 d10 k3, PS) | 16%
14 | ACGCCAACACAGTTTG (sugars k3 d10 k3, PS) | 48%
15 | GGCAAAAAGTAGTTCT (sugars k3 d10 k3, PS) | 31%
16 | GATCTTGAATTACTTC (sugars k3 d10 k3, PS) | 49%
17 | CCCCAGTTGCCGCCAG (sugars k3 d10 k3, PS) | -18%
18 | CCTACTTTAAGCCTTC (sugars k3 d10 k3, PS) | 35%
19 | ACTCTGATCTGCGGCC (sugars k3 d10 k3, PS) | 13%
20 | GCACTGATCACTTTAG (sugars k3 d10 k3, PS) | 63% and 47% and 50%
21 | AACCAACTTCCCCTTC (sugars k3 d10 k3, PS) | 16%
22 | ACAATTACCTAAACCC (sugars k3 d10 k3, PS) | 33%
23 | CAACAATCACTACTCC (sugars k3 d10 k3, PS) | 16%

Row | Sequence | target mRNA inhibition
24 | TCTTCCGCTCAAATCC (sugars k3 d10 k3, PS) | 41%
25 | CCAAAAGCCTTCTGCC (sugars k3 d10 k3, PS) | 34%
26 | CTTATCCCTAACATGC (sugars k3 d10 k3, PS) | 41%
27 | TGCTAGTCCTCAGGAT (sugars k3 d10 k3, PS) | 19%
28 | CATCACCGGAATTCGA (sugars k3 d10 k3, PS) | 2%
29 | CAGCTCGGGCGAGGCG (sugars k3 d10 k3, PS) | 13%
30 | GACTTGGCAGTCTGCC (sugars k3 d10 k3, PS) | 10%
31 | ACGAAGAGATACCTGT (sugars k3 d10 k3, PS) | 18%
32 | ACTACCAGCCATTTCT (sugars k3 d10 k3, PS) | 49%
33 | GCCCCCTCAGCAGAAG (sugars k3 d10 k3, PS) | 25%
34 | TAAATTGGTAGCTTTC (sugars k3 d10 k3, PS) | 74% and 80%
35 | AGTCCAATGCAAAAAC (sugars k3 d10 k3, PS) | 23%
36 | GCCTCAATGCCTACCG (sugars k3 d10 k3, PS) | -11%
37 | CCTCCTCCGTGTGGTT (sugars k3 d10 k3, PS) | 32%
38 | CAAAATCCTGAATGGC (sugars k3 d10 k3, PS) | 10%
39 | ATACTTCTCCAATACT (sugars k3 d10 k3, PS) | -15%
40 | CACTGGTACACCCAGT (sugars k3 d10 k3, PS) | 15%
41 | CCTACTGAAGAGCATT (sugars k3 d10 k3, PS) | 25%
42 | TCACAAATACGACTGC (sugars k3 d10 k3, PS) | 23%
43 | TTAATCATACTCCAGT (sugars k3 d10 k3, PS) | 19%
44 | AGTCAAAGCAAAGACG (sugars k3 d10 k3, PS) | 35%
45 | AATACCCTTCTGTTAA (sugars k3 d10 k3, PS) | 16%
46 | TTTCCTCAAGCTCCGC (sugars k3 d10 k3, PS) | 54%

Row | Sequence | target mRNA inhibition
47 | AGATTCACTGAATCCA (sugars k3 d10 k3, PS) | 6%
48 | GACTTTCTCCCCCAAC (sugars k3 d10 k3, PS) | 6%
49 | GTCTTAGCAGAGAATT (sugars k3 d10 k3, PS) | 47%
50 | AGAAATCGGAGCAGCA (sugars k3 d10 k3, PS) | 9%
51 | ATGCTAGTCCTCAGGA (sugars k3 d10 k3, PS) | -20%
52 | GCGGTTTCCTCAAGCT (sugars k3 d10 k3, PS) | 20%
53 | AGCTCTATACTTTGAA (sugars k3 d10 k3, PS) | 64%
54 | TAACTACCAGCCATTT (sugars k3 d10 k3, PS) | 24%
55 | TTCCAGGATTAATGTA (sugars k3 d10 k3, PS) | 37%
56 | CTCTAATCACTGTCAA (sugars k3 d10 k3, PS) | 11%
57 | TGCTTATTCCCCAATG (sugars k3 d10 k3, PS) | 52%
58 | CAAGTTAAACTTATCT (sugars k3 d10 k3, PS) | 16%
59 | ATACATCAAGGATGTA (sugars k3 d10 k3, PS) | 19%
60 | GCACATCATGCTATTC (sugars k3 d10 k3, PS) | 45%
61 | TCTGAGTGAAGTGTAC (sugars k3 d10 k3, PS) | 34%
62 | CAGTTACACATCCAAA (sugars k3 d10 k3, PS) | 45%
63 | CACCAAATTGCACTCG (sugars k3 d10 k3, PS) | 54% and 73%
64 | AGCCTTTATCACTCAG (sugars k3 d10 k3, PS) | 35%
65 | CATATTTTAAACGGGT (sugars k3 d10 k3, PS) | -16%
66 | CAACTTGGAAGTTGAT (sugars k3 d10 k3, PS) | 10%
67 | ATTTGAACCCCGTCCT (sugars k3 d10 k3, PS) | 31%
68 | AACTGTAAACCTGTGG (sugars k3 d10 k3, PS) | -8%
69 | AATTTAGAGCTTCTCC (sugars k3 d10 k3, PS) | 21%

Row | Sequence | target mRNA inhibition
70 | AACTGATCTGACTTTG (sugars k3 d10 k3, PS) | 34%
71 | TCTAGGATCCTCTACG (sugars k3 d10 k3, PS) | -24%
72 | CACTGATCACTTTAGA (sugars k3 d10 k3, PS) | 41%
73 | CACTGCCAACTAATTG (sugars k3 d10 k3, PS) | 39%
74 | CTTCAACAATCACTAC (sugars k3 d10 k3, PS) | 2%
75 | CCTTTCATAGAGCCTT (sugars k3 d10 k3, PS) | 69% and 90%
76 | GCGCCGGGCTTCTGCG (sugars k3 d10 k3, PS) | 29%
77 | AATACGACTGCTTAAA (sugars k3 d10 k3, PS) | 30%
78 | TTATAGACCCCTGACT (sugars k3 d10 k3, PS) | 10%
79 | ATTCTAGACAGACCTA (sugars k3 d10 k3, PS) | 33%
80 | ATAAGGTCAATAGTGT (sugars k3 d10 k3, PS) | 38%
81 | TTCAATCACAAATACG (sugars k3 d10 k3, PS) | 19%
82 | GAGTGAAGTGTACTAT (sugars k3 d10 k3, PS) | 62% and 77%
83 | ACCTTGGGCAGCCAGT (sugars k3 d10 k3, PS) | -4%
84 | AAATACTTCATTACCC (sugars k3 d10 k3, PS) | 24%
85 | TCTGTTATGTTCACCT (sugars k3 d10 k3, PS) | 52%
86 | CCCCAAGACCAAACTG (sugars k3 d10 k3, PS) | -9%
87 | GACCATCCCAAAATGC (sugars k3 d10 k3, PS) | 8%
88 | GCTGAGGCTTCCCGGC (sugars k3 d10 k3, PS) | 15%
89 | GTAACCTATTGACTAT (sugars k3 d10 k3, PS) | 33%
90 | GAAACCAGGAGTGCCA (sugars k3 d10 k3, PS) | 4%
91 | AGCTATTAAAATTACG (sugars k3 d10 k3, PS) | 22%
92 | TCCTATCTTCACCACG (sugars k3 d10 k3, PS) | 40%

Row | Sequence | target mRNA inhibition
93 | CTGTGGTGGTCTGATT (sugars k3 d10 k3, PS) | 33%
94 | CACCAAAGACCTCGAC (sugars k3 d10 k3, PS) | 18%
95 | ACAGCTAAGATAGCAG (sugars k3 d10 k3, PS) | 2%
96 | CCCTTCTAGCTTCAAG (sugars k3 d10 k3, PS) | 38%
97 | ATCACCTTCCGCCGCC (sugars k3 d10 k3, PS) | 15%
98 | ATTGTAGTTAATGTCA (sugars k3 d10 k3, PS) | 50%
99 | TGCAGTTTCTATAGTA (sugars k3 d10 k3, PS) | 9%
100 | CCGCAGGGATTTGAAC (sugars k3 d10 k3, PS) | 2%
101 | TTCGAGAAATCGGAGC (sugars k3 d10 k3, PS) | -11%
102 | GCTTTAAATGACGCAA (sugars k3 d10 k3, PS) | -22%
103 | TAAAGTAAATAGGCTA (sugars k3 d10 k3, PS) | 21%
104 | CCGGAATTCGATCACC (sugars k3 d10 k3, PS) | 9%
105 | ATTACACCAGTCCTTT (sugars k3 d10 k3, PS) | 40%
106 | GCTACTTAGCTGTGGT (sugars k3 d10 k3, PS) | 28%
107 | ACCAGTCCTTTTAGTA (sugars k3 d10 k3, PS) | -2%
108 | AAAGCCCACCCTCTAA (sugars k3 d10 k3, PS) | -26%
109 | CCCCAAAAGCTCTATA (sugars k3 d10 k3, PS) | 8%
110 | CTTCTGAACCGGAGCA (sugars k3 d10 k3, PS) | -27%
111 | GTATTATAATAGAGCT (sugars k3 d10 k3, PS) | 4%
112 | CAGTAGGCCAGACCAA (sugars k3 d10 k3, PS) | 14%
113 | AAGGCAAATCGCCATG (sugars k3 d10 k3, PS) | 14%
114 | TCATTAAGCCACTTCC (sugars k3 d10 k3, PS) | 19%

— the OligoGym collection
